Assay results reported in patent US20250195513A1, “DEGRADATION OF IRAK4 BY CONJUGATION OF IRAK4 INHIBITORS WITH E3 LIGASE LIGAND AND METHODS OF USE” (BeiGene, Ltd., priority 2022, published 2025).
Read-outs that look alike come from different tables or passages of the source.

Target: T1, IRAK4 (Homo sapiens, UniProt Q9NWZ3)
T1 construct: endogenous in cells; host or cells: Karpas299
T1 sequence (Q9NWZ3 1-460): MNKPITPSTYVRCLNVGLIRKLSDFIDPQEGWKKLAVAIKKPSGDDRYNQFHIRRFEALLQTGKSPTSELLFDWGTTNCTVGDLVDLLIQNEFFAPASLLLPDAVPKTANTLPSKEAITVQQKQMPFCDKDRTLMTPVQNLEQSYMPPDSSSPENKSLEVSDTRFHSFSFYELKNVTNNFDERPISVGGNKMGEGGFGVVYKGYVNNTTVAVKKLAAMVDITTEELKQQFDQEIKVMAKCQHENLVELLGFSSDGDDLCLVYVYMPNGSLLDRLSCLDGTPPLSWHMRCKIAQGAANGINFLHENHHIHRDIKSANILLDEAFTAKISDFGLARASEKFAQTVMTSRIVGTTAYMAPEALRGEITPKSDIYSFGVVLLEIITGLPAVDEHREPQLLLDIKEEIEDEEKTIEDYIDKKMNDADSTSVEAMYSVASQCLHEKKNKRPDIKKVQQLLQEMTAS
Experiment: IRAK4 Degradation Assay (Karpas299, HTRF/TR-FRET)
Type: cell-based
In short: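 Karpas299 cells at 0.2 million per well were exposed to serially diluted compounds for 24 h or 5 h, then lysed. IRAK4 remaining in lysates was quantified by HTRF (665/620 nm) after overnight antibody incubation at room temperature. Percent degradation was fitted to a four-parameter curve to give IC50 (DC50).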

[1] = Karpas-299 cells, 24 h treatment, maximum percentage of degradation, read-out: IRAK4 in Karpas-299 (24 h) Dmax (%)
[2] = Karpas-299 cells, 24 h treatment, read-out: IRAK4 in Karpas-299 (24 h) DC50
[3] = Karpas-299 cells, 5 h treatment, maximum percentage of degradation, read-out: IRAK4 in Karpas-299 (5 h) Dmax (%)
[4] = Karpas-299 cells, 5 h treatment, read-out: IRAK4 in Karpas-299 (5 h) DC50
[5] = Degradation (Karpas-299), comparison table, Linker Type A, read-out: Compound (Linker Type A) DC50
[6] = Degradation (Karpas-299), comparison table, Linker Type A, read-out: Compound (Linker Type A) Dmax (%)

| Structure (SMILES) | Dmax [1] | DC50 [2] | Dmax [3] | DC50 [4] | DC50 [5] | Dmax [6] |
| --- | --- | --- | --- | --- | --- | --- |
| COc1cc2nn(C3CCN(C4CN(C(=O)[C@@H]5CCN(c6cc(F)c([C@H]7CCC(=O)NC7=O)c(F)c6)C5)C4)CC3)cc2cc1NC(=O)c1cccc(C(F)(F)F)n1 [Example 42, N-(2-(1-(1-((R)-1-(4-((R)-2,6-dioxopiperidin-3-yl)-3,5-difluorophenyl)pyrrolidine-3-carbonyl)azetidin-3-yl)piperidin-4-yl)-6-methoxy-2H-indazol-5-yl)-6-(trifluoromethyl)picolinamide] | 95% | 2.2 nM | 83% | 4.9 nM | – | – |
| COc1cc2nn([C@H]3CC[C@H](CN4CCN(C(=O)C5CN(c6ccc(N7CCC(=O)NC7=O)cc6)C5)CC4)CC3)cc2cc1NC(=O)c1cccc(C(F)(F)F)n1 [Example 5, N-(2-((1r,4r)-4-((4-(1-(4-(2,4-dioxotetrahydropyrimidin-1(2H)-yl)phenyl)azetidine-3-carbonyl)piperazin-1-yl)methyl)cyclohexyl)-6-methoxy-2H-indazol-5-yl)-6-(trifluoromethyl)picolinamide] | 92% | 14 nM | – | – | 14 nM | 92% |
| CC(C)c1cc(-c2nc(C(=O)Nc3cn([C@H]4CC[C@H](N5CCN(C(=O)[C@@H]6CCN(c7cc(F)c([C@H]8CCC(=O)NC8=O)c(F)c7)C6)CC5)CC4)nc3C(F)F)co2)ccn1 [Example 85, N-(3-(difluoromethyl)-1-((1R,4r)-4-(4-((R)-1-(4-((R)-2,6-dioxopiperidin-3-yl)-3,5-difluorophenyl)pyrrolidine-3-carbonyl)piperazin-1-yl)cyclohexyl)-1H-pyrazol-4-yl)-2-(2-isopropylpyridin-4-yl)oxazole-4-carboxamide] | 95% | 5.2 nM | – | – | – | – |
| COc1cc2nn([C@H]3CC[C@H](CN4CCN(C(=O)[C@@H]5CCN(c6ccc(N7CCC(=O)NC7=O)cc6)C5)CC4)CC3)cc2cc1NC(=O)c1cccc(C(F)(F)F)n1 [Example 36, N-(2-((1R,4r)-4-((4-((R)-1-(4-(2,4-dioxotetrahydropyrimidin-1(2H)-yl)phenyl)pyrrolidine-3-carbonyl)piperazin-1-yl)methyl)cyclohexyl)-6-methoxy-2H-indazol-5-yl)-6-(trifluoromethyl)picolinamide] | 89% | 15 nM | – | – | 15 nM | 89% |
| Cc1cc(-c2nc(C(=O)Nc3cn(-c4ccc(N5CCN(C(=O)[C@@H]6CCN(c7cc(F)c([C@H]8CCC(=O)NC8=O)c(F)c7)C6)CC5)nc4)nc3C(N)=O)co2)ccn1 [Example 30, N-(3-carbamoyl-1-(6-(4-((R)-1-(4-((R)-2,6-dioxopiperidin-3-yl)-3,5-difluorophenyl)pyrrolidine-3-carbonyl)piperazin-1-yl)pyridin-3-yl)-1H-pyrazol-4-yl)-2-(2-methylpyridin-4-yl)oxazole-4-carboxamide] | 95% | 3.2 nM | 76% | 5.3 nM | – | – |
| CC(C)(O)c1cc2nn([C@H]3CC[C@H](N4CCN(C(=O)C5CN(c6cc(F)c([C@H]7CCC(=O)NC7=O)c(F)c6)C5)CC4)CC3)cc2cc1NC(=O)c1cccn(C2CC2)c1=O [Example 102, 1-cyclopropyl-N-(2-((1r,4r)-4-(4-(1-(4-((R)-2,6-dioxopiperidin-3-yl)-3,5-difluorophenyl)azetidine-3-carbonyl)piperazin-1-yl)cyclohexyl)-6-(2-hydroxypropan-2-yl)-2H-indazol-5-yl)-2-oxo-1,2-dihydropyridine-3-carboxamide] | 94% | 2 nM | 61% | 12 nM | – | – |
| O=C1CC[C@H](c2c(F)cc(N3CC[C@@H](C(=O)N4CCN([C@H]5CC[C@H](n6cc7cc(NC(=O)c8cccc(C(F)(F)F)n8)c(C(=O)NC8CC8)cc7n6)CC5)CC4)C3)cc2F)C(=O)N1 [Example 129, N-cyclopropyl-2-((1R,4r)-4-(4-((R)-1-(4-((R)-2,6-dioxopiperidin-3-yl)-3,5-difluorophenyl)pyrrolidine-3-carbonyl)piperazin-1-yl)cyclohexyl)-5-(6-(trifluoromethyl)picolinamido)-2H-indazole-6-carboxamide] | 99% | 1.9 nM | – | – | – | – |
| CC(C)(O)c1cc2nn([C@H]3CC[C@H](N4CCN(C5CCN(c6cc(F)c([C@H]7CCC(=O)NC7=O)c(F)c6)CC5)CC4)CC3)cc2cc1NC(=O)c1cccc(C(F)(F)F)n1 [Example 99, N-(2-((1r,4r)-4-(4-(1-(4-((R)-2,6-dioxopiperidin-3-yl)-3,5-difluorophenyl)piperidin-4-yl)piperazin-1-yl)cyclohexyl)-6-(2-hydroxypropan-2-yl)-2H-indazol-5-yl)-6-(trifluoromethyl)picolinamide] | 99% | 0.4 nM | – | – | – | – |
| O=C1CC[C@H](c2c(F)cc(N3CC[C@@H](C(=O)N4CCN([C@H]5CC[C@H](n6cc(NC(=O)c7cnn(-c8ccnc(NCC(F)(F)F)c8)n7)c(C(F)F)n6)CC5)CC4)C3)cc2F)C(=O)N1 [Example 52, N-(3-(difluoromethyl)-1-((1R,4r)-4-(4-((R)-1-(4-((R)-2,6-dioxopiperidin-3-yl)-3,5-difluorophenyl)pyrrolidine-3-carbonyl)piperazin-1-yl)cyclohexyl)-1H-pyrazol-4-yl)-2-(2-((2,2,2-trifluoroethyl)amino)pyridin-4-yl)-2H-1,2,3-triazole-4-carboxamide] | 96% | 2 nM | – | – | – | – |

Other lines, results leading:

| Dmax [1] | DC50 [2] | Dmax [3] | DC50 [4] | DC50 [5] | Dmax [6] | Structure (SMILES) |
| --- | --- | --- | --- | --- | --- | --- |
| 96% | 4.8 nM | – | – | – | – | CC(C)(O)c1cc2nn(C3CCN([C@H]4CCN(CC5CN(c6cc(F)c([C@H]7CCC(=O)NC7=O)c(F)c6)C5)CC4(F)F)CC3)cc2cc1NC(=O)c1ccc2cc(C#N)cnn12 [Example 197, 3-cyano-N-(2-((S)-1′-((1-(4-((R)-2,6-dioxopiperidin-3-yl)-3,5-difluorophenyl)azetidin-3-yl)methyl)-3′,3′-difluoro-[1,4′-bipiperidin]-4-yl)-6-(2-hydroxypropan-2-yl)-2H-indazol-5-yl)pyrrolo[1,2-b]pyridazine-7-carboxamide] |
| 98% | 0.5 nM | – | – | – | – | O=C1CC[C@H](c2c(F)cc(N3CC(C(=O)N4CCN([C@H]5CC[C@H](n6cc7cc(NC(=O)c8cccc(C(F)(F)F)n8)c(C(=O)NC8CC8)cc7n6)CC5)CC4)C3)cc2F)C(=O)N1 [Example 130] |
| 96% | 6.8 nM | – | – | – | – | CCC(C)c1cc(-c2nc(C(=O)Nc3cn([C@H]4CC[C@H](N5CCN(C(=O)[C@@H]6CCN(c7cc(F)c([C@H]8CCC(=O)NC8=O)c(F)c7)C6)CC5)CC4)nc3C(F)F)co2)ccn1 (stereo partly drawn) [Example 170, 2-(2-(sec-butyl)pyridin-4-yl)-N-(3-(difluoromethyl)-1-((1R,4r)-4-(4-((R)-1-(4-((R)-2,6-dioxopiperidin-3-yl)-3,5-difluorophenyl)pyrrolidine-3-carbonyl)piperazin-1-yl)cyclohexyl)-1H-pyrazol-4-yl)oxazole-4-carboxamide] |
| 94% | 1.9 nM | – | – | – | – | CC(C)(O)c1cc2nn(C3CCN([C@H]4CCN(C(=O)C5CN(c6cc(F)c([C@H]7CCC(=O)NC7=O)c(F)c6)C5)CC4(F)F)CC3)cc2cc1NC(=O)c1ccc2cc(C#N)cnn12 [Example 287, 3-cyano-N-(2-((S)-1′-(1-(4-((R)-2,6-dioxopiperidin-3-yl)-3,5-difluorophenyl)azetidine-3-carbonyl)-3′,3′-difluoro-[1,4′-bipiperidin]-4-yl)-6-(2-hydroxypropan-2-yl)-2H-indazol-5-yl)pyrrolo[1,2-b]pyridazine-7-carboxamide] |
| 4% | > 1000 nM | – | – | – | – | CC(C)(O)c1cc2nn([C@H]3CC[C@H](N4CCN(C(=O)/C=C/C56CC7CC(CC(C7)C5)C6)CC4)CC3)cc2cc1NC(=O)c1ccc2cc(C#N)cnn12 [Example 441, N-(2-((1r,4r)-4-(4-((E)-3-(adamantan-1-yl)acryloyl)piperazin-1-yl)cyclohexyl)-6-(2-hydroxypropan-2-yl)-2H-indazol-5-yl)-3-cyanopyrrolo[1,2-b]pyridazine-7-carboxamide] |
| 95% | 10 nM | – | – | – | – | COc1cc2nn([C@H]3CC[C@H](CN4CCN(C(=O)[C@@H]5CCN(c6cc(F)c(N7CCC(=O)NC7=O)c(F)c6)C5)CC4)CC3)cc2cc1NC(=O)c1cccn(C2CC2)c1=O [Example 171, 1-cyclopropyl-N-(2-((1R,4r)-4-((4-((R)-1-(4-(2,4-dioxotetrahydropyrimidin-1(2H)-yl)-3,5-difluorophenyl)pyrrolidine-3-carbonyl)piperazin-1-yl)methyl)cyclohexyl)-6-methoxy-2H-indazol-5-yl)-2-oxo-1,2-dihydropyridine-3-carboxamide] |
